Test results taken from patent US20100179061A1, “PLANT GROWTH PROMOTER” (Nisshin Pharma Inc., priority 2007, published 2010).

Key:
radish sprouts = assay: Growth promotion effect test I of water-solubilized coenzyme Q10; assay type: in vivo; conditions: high concentration of 100 ppm of coenzyme Q10
Description: A Kimtowel was matted on a petri dish, 100 mL of a growth-promoting agent in Example 1 was poured thereon, and 20 seeds of radish sprouts (produced by Noguchi Seed and Seedling Laboratory) were placed thereon. This petri dish was stored at room temperature under a light shielding condition. After 7 days, the sprouts were collected, and a total length and a root length of the radish sprouts were measured. Data as the control was a result obtained by measuring the total length of the plant in the same way as described above, except that city water was used in place of the growth-promoting agent (data as the control described below was a result obtained by the same way described above). Numerical values in the Table represent a mean of measured values unless otherwise explained (Numerical values in the Table described below represent the same described above). A growth rate was calculated based on the following formula (Numerical A growth rate was calculated by the same way described above): [(A−B)/B]×100, wherein A denotes a measured value of the total length of the plant cultivated in the presence of the growth-promoting agent containing coenzyme Q10, and B denotes a measured value of the total length of the plant as the control plant.

Burdock = assay: Growth promotion effect test IV of water-solubilized coenzyme Q10; assay type: in vivo; conditions: growth-promoting agent in Example 3 (CoQ10 1 ppm), after 7 days
Description: (§1) A required number of petri dishes were prepared, the Kimtowel was matted on the each petri dish, 100 mL of the growth-promoting agent in Example 3 was poured thereon, and 40 seeds (produced by Noguchi Seed and Seedling Laboratory) of the plants described in Table 4 were placed thereon. These petri dishes were stored at room temperature under the light shielding condition. After 7 days, sprouts were collected, and the total length of the plants described in Table 4 was measured. The growth rate was calculated based on the following formula (A growth rate was calculated by the same way described above): [(A−B)/B]×100, wherein A denotes a measured value of the total length of the plant cultivated in the presence of the growth-promoting agent containing CoQ10, and B denotes the measured value of the total length of the plant as the control.

Crown daisy = assay: as above; assay type: in vivo; conditions: growth-promoting agent in Example 3 (CoQ10 1 ppm), after 7 days
Description: as §1

Komatsuna = assay: as above; assay type: in vivo; conditions: growth-promoting agent in Example 3 (CoQ10 1 ppm), after 7 days
Description: as §1

Spinach = assay: as above; assay type: in vivo; conditions: growth-promoting agent in Example 3 (CoQ10 1 ppm), after 7 days
Description: as §1

Buckwheat = assay: Growth promotion effect test V of water-solubilized coenzyme Q10; assay type: in vivo; conditions: same way as test IV (CoQ10 1 ppm)
Description: (§2) A required number of petri dishes were prepared, the Kimtowel was matted on the each petri dish, 100 mL of the growth-promoting agent in Example 3 was poured thereon, and 40 seeds (produced by Noguchi Seed and Seedling Laboratory) of the plants described in Table 4 were placed thereon. These petri dishes were stored at room temperature under the light shielding condition. After 7 days, sprouts were collected, and the total length of the plants described in Table 4 was measured. The required number of petri dishes was prepared, and the growth-promoting effect on seeds (produced by Noguchi Seed and Seedling Laboratory) of the plants described in Table 5 was examined in the same way as in Growth promotion effect test IV of water-solubilized coenzyme Q10. 30 seeds of wheat were examined. Buckwheat and snow peas were stored at room temperature under the light shielding condition, and collected after 8 days. Spinach was stored at room temperature under the light shielding condition, and collected after 9 days.

Chives = assay: as above; assay type: in vivo; conditions: same way as test IV (CoQ10 1 ppm)
Description: as §2

Green onions = assay: as above; assay type: in vivo; conditions: same way as test IV (CoQ10 1 ppm)
Description: as §2

Snow peas = assay: as above; assay type: in vivo; conditions: same way as test IV (CoQ10 1 ppm)
Description: as §2

Wheat = assay: as above; assay type: in vivo; conditions: 30 seeds, same way as test IV (CoQ10 1 ppm)
Description: as §2

[1] = Precipitation of coenzyme Q10 in the growth-promoting agent; assay type: physicochemical; conditions: growth-promoting agent diluted with city water, up to 100 ppm
Description: First, 1.25 g of water-solubilized coenzyme Q10 (Aqua Q10-P40 containing coenzyme Q10 in an amount of 40% by mass manufactured by Nisshin Pharma Inc.) was diluted using 500 ml of city water to prepare a solution of 1000 ppm of coenzyme Q10. This was diluted with city water to prepare a growth-promoting agent in a solubilized form containing coenzyme Q10 (sometimes described as CoQ10) in the amount of 10 ppm or 100 ppm.

[2] = room temperature, light shielding
[3] = room temperature, light shielding, collected after 8 days

concentration disorder (radish sprouts): without causing a concentration disorder | precipitation of coenzyme Q10 [1]: not precipitated
Structure (SMILES): COC1=C(OC)C(=O)C(C/C=C(\C)CC/C=C(\C)CC/C=C(\C)CC/C=C(\C)CC/C=C(\C)CC/C=C(\C)CC/C=C(\C)CC/C=C(\C)CC/C=C(\C)CCC=C(C)C)=C(C)C1=O [CoQ10, coenzyme Q10]
Growth increase rate (Burdock; versus control): 12.7% | Measured value (total length) (Burdock; [2]): 4.96 cm | Growth increase rate (Crown daisy; versus control): 17.9% | Measured value (total length) (Crown daisy; [2]): 5.46 cm | Growth increase rate (Komatsuna; versus control): 15.6% | Measured value (total length) (Komatsuna; [2]): 8.87 cm | Growth increase rate (Spinach; versus control): 10.5% | Measured value (total length) (Spinach; [2]): 4.22 cm | Growth increase rate (Buckwheat; after 8 days, versus control): 12.8% | Measured value (total length) (Buckwheat; [3]): 25.01 cm | Measured value (total length) (Chives; [2]): 2.90 cm | Growth increase rate (Chives; versus control): 22.4% | Measured value (total length) (Green onions; [2]): 3.02 cm | Growth increase rate (Green onions; versus control): 19.4% | Growth increase rate (Snow peas; after 8 days, versus control): 17.1% | Measured value (total length) (Snow peas; [3]): 29.31 cm | Measured value (total length) (Wheat; [2]): 14.16 cm | Growth increase rate (Wheat; versus control): 44.6%
